Tested on: DNFB-induced allergic contact dermatitis
Test: DNFB-induced contact dermatitis in mice (allergic contact dermatitis model)
Assay type: in vivo, mice (NMRI)
Settings: ascrolimus applied in the EDR system, 0.1, 0.3, 1.0%, ear homogenates, 24 hours
Excerpt: Various models can be used in order to determine the effectiveness and bioavailability of active substances as a function of the topical medication used. A suitable pharmacological model within the scope of anti-inflammatory therapy on the skin is represented by the “Irritant contact dermatitis (ICD)” model in mice. In this model, the inflammatory components of eczema are imitated. This inflammatory aspect likewise plays a role in allergic contact dermatitis and atopic dermatitis with the participation of allergen-specific T cells intrinsic to the skin. Therefore, a T-cell-dependent model of allergic contact dermatitis (in reaction to dinitrofluorobenzene, DNFB) can be utilized. Acute and chronic allergic contact dermatitis (ACD) is characterized by a type-1 dominated cytokine profile. Therefore, the ACD model induced by dinitrofluorobenzene (DNFB) was used in order to assess in vivo the activity of the active substance “ascrolimus” (topical immunomodulator). After sensitizing by means of DNFB, edema was produced by subsequent application of the same contact allergens and therefore, a cutaneous infiltration of allergenic T-cells and granulocytes was triggered. The mice (NMRI) were sensitized with 0.5% DNFB on day 0 and day 1. On day 5, the mice were again treated with 0.3% DNFB. […]

## ascrolimus
  peroxidase activity as a measure for granulocyte infiltration (delta peroxidase, FIG. 5): significant concentration-dependent inhibition
